This note sets out measurements from patent US20180024136A1, “Development of ABCG2-Sensitive Fluorescent Probe For Isolation of ABCG2low Neural Stem/Progenitor Cells” (National University of Singapore, priority 2015, published 2018).

Data set [1] in a line: Spectroscopic properties of CF library (absorbance, emission, quantum yield, extinction coefficient). In kind it is physicochemical. As to the method: All the chemicals and solvents were purchased from Sigma Aldrich, Alfa Aesar, Fluka, MERCK, Tocris or Acros, and used without further purification. Normal phase purifications were carried out using Merck Silica Gel 60 (particle size: 0.040-0.063 mm, 230-400 mesh). Analytical characterization was performed on a HPLC-MS (Agilent-1200 series) with a DAD detector and a single quadrupole mass spectrometer (6130 series) with an ESI probe. ^1H-NMR and ^13C-NMR spectra were recorded on Bruker Avance 300 MHz NMR spectrometers, and chemical shifts are expressed in parts per million (ppm) and coupling constants are reported as a J value in Hertz (Hz). High resolution mass spectrometry (HRMS) data was recorded on a Micro mass VG 7035 (Mass Spectrometry Laboratory at National University of Singapore (NUS)). Spectroscopic and quantum yield data were measured on spectroscopic measurements, performed on a fluorometer and UV/VIS instrument, Synergy 4 of Bioteck Company. The slit width was 1 nm for both excitation and emission, and the data analysis was performed using GraphPrism 5.0.

The next data set has as its target ABCB1 (Homo sapiens, UniProt P08183). The experiment in a line: in vitro.
The next data set relates to human KB3-1 cells. The experiment in a line: MTS viability assay on KB3-1 cells. Conditions: 48 h. In kind it is cell-based. For orientation: Formazan colour is commonly taken as a measure of viable cells.
The next data set deals with T1, ABCG2 (Homo sapiens, UniProt Q9UNQ0).
T1 sequence (Q9UNQ0 1-655): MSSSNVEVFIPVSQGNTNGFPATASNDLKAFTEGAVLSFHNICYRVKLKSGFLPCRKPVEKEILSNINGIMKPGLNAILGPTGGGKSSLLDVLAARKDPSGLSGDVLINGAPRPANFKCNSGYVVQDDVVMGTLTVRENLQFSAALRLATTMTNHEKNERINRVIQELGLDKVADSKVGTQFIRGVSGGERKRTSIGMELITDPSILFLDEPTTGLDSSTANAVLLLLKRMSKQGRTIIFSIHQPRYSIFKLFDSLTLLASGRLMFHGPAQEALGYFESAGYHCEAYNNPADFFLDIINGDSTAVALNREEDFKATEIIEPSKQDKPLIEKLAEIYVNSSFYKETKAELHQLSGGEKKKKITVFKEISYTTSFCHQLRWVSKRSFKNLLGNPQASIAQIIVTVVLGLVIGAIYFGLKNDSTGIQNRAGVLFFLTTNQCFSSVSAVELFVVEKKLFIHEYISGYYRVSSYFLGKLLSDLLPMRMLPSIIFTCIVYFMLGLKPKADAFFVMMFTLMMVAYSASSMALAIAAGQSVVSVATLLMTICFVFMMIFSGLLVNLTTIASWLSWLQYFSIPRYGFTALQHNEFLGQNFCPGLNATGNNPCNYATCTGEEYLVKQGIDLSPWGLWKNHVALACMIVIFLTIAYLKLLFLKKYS
The experiment in a line: Probe response to Ko143 in RPMI-8226 cells. In kind it is cell-based. The arrangement: pre-treatment of RPMI-8226 cells with or without Ko143; endogenous in cells; host or cells: RPMI-8226. Conditions: RPMI-8226, Ko143 pre-treatment, 1 μM probe. As to the method:
FIGS. 11A-11B show CDg13 has high sensitivity to ABCG2: (A) and (B) pre-treatment of RPMI-8226 cells with or without Ko143 were conducted for 30 minutes prior to staining with 1 μM of CDg13, pheophorbide A (PhA) or CDr3, fold change of fluorescence intensity from 3-6 independent experiments (A) (values are means±SEM, *, p<0.05; **, p<0.01), and representative fluorescence histogram of CDg13 and PhA (B) (unstained, 0, 100, 1,000 and 5,000 nM of Ko143 treated group is presented).

The next data set has as its system mouse NSPCs. Kind of data set: Neurosphere size after co-incubation with probe. It counts as cell-based. Conditions: 1 μM, 7 days.
For data set [2], the system named is neurospheres from E14.5 mouse embryonic brain. Kind of data set: Neuronal differentiation of primary neurospheres (Tuj1/GFAP immunostaining). Conditions: neurospheres from sorted cells, 150 per group. In kind it is cell-based. As to the method: All animal experiments were approved by the Biomedical Research Council Singapore, Institutional Animal Care and Use Committee (IACUC). E14.5 embryos were obtained from C57BL/6 pregnant mice. Cerebral cortices were removed and triturated into single-cell suspension by digestion of dissected tissues with StemPro® Accutase® (Invitrogen) and filtered through 40 μm nylon mesh. Dissociated cells were seeded at a density of 1×10^3 cells/cm^2 in neurosphere growth medium [DMEM/F12 supplemented with 2% B27 (without vitamin A), bFGF (10 ng/ml), EGF (20 ng/ml), 1× anti-anti]. All the cell culture components were from Invitrogen. Passaging of neurosphere was conducted through single cell dissociation of neurospheres as described above. […]
More than a hundred of differentiated neurospheres were fixed in paraformaldehyde (4%, w/v) for 15 min, permeabilized in Triton X-100 (0.1% v/v), and blocked with BSA (3% w/v) for 1 hour. […] The existence of clear Tuj1 positive cells inside a differentiated neurosphere were counted as neuron-contained neurospheres. Neuronal clumps were counted if more than 10 of nuclei of neuronal cells are packaged each other. Neurite outgrowth of Tuj1 positive cells were measured using neurite outgrowth module parameter of MetaXpress ([…]) with maximum width of 1 μm. The phases with high neurite outgrowth were selected and counted at least 300 cells.

Usually fold induction stands for the ratio of treated to control signal. A lower fold induction goes with little rise in signal.

Sequence of ABCB1 (P08183 whole entry): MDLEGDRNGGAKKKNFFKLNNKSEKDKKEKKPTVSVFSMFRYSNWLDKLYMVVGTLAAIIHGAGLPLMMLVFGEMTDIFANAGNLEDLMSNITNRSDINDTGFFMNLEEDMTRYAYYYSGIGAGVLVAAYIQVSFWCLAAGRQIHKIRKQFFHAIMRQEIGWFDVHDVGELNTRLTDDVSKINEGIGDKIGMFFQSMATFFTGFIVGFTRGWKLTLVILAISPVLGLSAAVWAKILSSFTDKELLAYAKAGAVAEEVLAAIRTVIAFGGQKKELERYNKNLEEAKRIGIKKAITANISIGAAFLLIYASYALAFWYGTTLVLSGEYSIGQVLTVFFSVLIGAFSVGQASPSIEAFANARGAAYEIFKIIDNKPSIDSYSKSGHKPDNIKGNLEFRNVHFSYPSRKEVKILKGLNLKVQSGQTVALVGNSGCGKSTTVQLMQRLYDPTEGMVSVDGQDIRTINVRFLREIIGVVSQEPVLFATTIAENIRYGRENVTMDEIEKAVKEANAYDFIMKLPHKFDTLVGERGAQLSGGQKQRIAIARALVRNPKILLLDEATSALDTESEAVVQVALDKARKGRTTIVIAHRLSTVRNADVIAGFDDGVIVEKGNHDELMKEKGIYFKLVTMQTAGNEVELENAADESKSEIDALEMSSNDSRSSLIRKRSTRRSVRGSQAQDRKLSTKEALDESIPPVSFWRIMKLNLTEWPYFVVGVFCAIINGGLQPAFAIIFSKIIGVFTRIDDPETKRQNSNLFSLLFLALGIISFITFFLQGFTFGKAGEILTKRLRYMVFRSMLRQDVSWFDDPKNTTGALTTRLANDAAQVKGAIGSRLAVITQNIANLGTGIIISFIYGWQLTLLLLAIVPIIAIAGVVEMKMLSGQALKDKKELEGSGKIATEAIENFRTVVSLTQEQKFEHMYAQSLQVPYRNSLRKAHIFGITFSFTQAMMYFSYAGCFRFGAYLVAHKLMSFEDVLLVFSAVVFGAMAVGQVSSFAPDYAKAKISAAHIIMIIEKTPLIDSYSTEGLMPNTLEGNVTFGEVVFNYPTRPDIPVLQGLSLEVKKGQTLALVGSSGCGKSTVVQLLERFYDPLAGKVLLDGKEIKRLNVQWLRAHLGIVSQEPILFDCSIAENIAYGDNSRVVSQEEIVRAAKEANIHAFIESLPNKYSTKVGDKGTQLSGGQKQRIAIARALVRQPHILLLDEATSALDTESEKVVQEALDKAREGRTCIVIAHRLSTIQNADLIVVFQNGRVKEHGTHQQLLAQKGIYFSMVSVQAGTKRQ

`CCCCCCCCCN(CCCCCCCCC)C(=O)c1ccc(-c2c3cc(Cl)c(=O)cc-3oc3cc(O)c(Cl)cc23)cc1` [CDg13]: in data set [1] (100 μM in ethanol), the “Abs (nm)” value is recorded as 520 nm and the “Em (nm)” value was 553 nm. For the same compound, in data set [1] (100 μM in ethanol, reference fluorescein), the “QY (Φ)” value was 0.82. For the same compound, the extinction co-efficient in data set [1] (measured in ethanol) is 40933.2 M⁻¹ cm⁻¹. Further, on ABCB1, the fold induction at 1 h, 10 µM was found to be 1.5. Further, the toxicity entry with human KB3-1 cells (1 to 10 μM) was “No toxicity was observed”. Moreover, the “concentration at which cells started dying” value in the data set with human KB3-1 cells is 50 µM. Also, the “sensitivity of response to ABCG2” value on ABCG2 is “higher sensitivity and produced more consistent data than PhA”. Moreover, in the data set on mouse NSPCs, the “effect on neurosphere size” value was “no significant difference in neurosphere size”. Further, in the data set with mouse NSPCs (third passage), the “neurosphere size on average” value was 109 μm. Besides, the “neurospheres differentiated to neuron in the whole spheres” value in data set [2] was 95.3%.
